Patent US20100003711A1, “Methods to identify therapeutic agents” (THE SCRIPPS RESEARCH INSTITUTE, priority 2005, published 2010)

Columns and labels:
[1] = test system: neuronal cell lines; experiment: Cytotoxicity towards neuronal cell lines (similar procedures); format: cell-based
[2] = test system: J774.1 macrophages; experiment: Lipid-loading assay (foam cell formation); format: cell-based, murine; conditions: LDL 100 μg/mL with 4a or 5a (20 μM), 72 h, unactivated J774.1 macrophages
Procedure: Lipid-loading assay (foam cell formation). J774.1 macrophages were incubated in ATCC-recommended media containing 10% fetal bovine serum under a controlled atmosphere of 5 or 7% CO2 at 37° C., in 8-well chamber slides. […] At termination, cells were washed twice with PBS (pH 7.4). The cells were then fixed with 6% (v/v) paraformaldehyde in PBS for 30 minutes, rinsed with propylene glycol for 2 minutes and lipids were stained with 5 mg/ml Oil Red 0 for 8 minutes. The cells were counterstained with Harris' hematoxylin for 45 seconds, and background staining was removed with 6% paraformaldehyde followed by washing once in PBS and once in tap water. Cover slips were mounted onto the glass slides using glycerol and the slide preparations were examined by light microscopy. The number of lipid-laden cells was scored out of a total of at least 100 cells counted in a single field in each slide, and expressed as a percentage of total cells. Photographs were taken at 100× magnification.

[3] = test system: Class A scavenger receptor (SR-A); experiment: Scavenger receptor expression by flow cytometry, SR-A; format: cell-based, murine; conditions: cultured macrophages, compound in the absence of LDL
Procedure: Cell surface CD36 and SR-A were measured by flow cytometry using CD36 (BD Biosciences Pharmingen, San Diego, Calif.) and CD204 (Serotec, Oxford, UK) specific monoclonal antibodies. See Liao et al. (2000) Arterioscler. Thromb. Vasc. Biol. 20: 1968-75; Hu et al. (1996) Blood 87: 2020-28. Murine macrophage J774A.1 cells were serum-starved overnight in media with 0.5% BSA. Cells (1×10^6) treated with cholesterol ozonation products or cholesterol ozonation product complexed with LDL for specified times were then washed twice with PBS. […] Expression of either CD36 or SR-A was determined with CD36 (BD Biosciences Pharmingen, San Diego, Calif.) and CD204 (Serotec, Oxford, U.K.) specific monoclonal antibodies, respectively. After washing off the primary antibody, secondary antibodies were added, cells were washed again, then analyzed on a FACS calibur 2 (Becton Dickinson, Sparks, Md.) flow cytometer and analyzed by CellQuant software. Results were expressed as mean fluorescence intensity±standard error of the mean (SEM) of at least duplicate determinations. Significance was determined using a student two-tail t test, with (*) indicating p<0.05, and (**) indicating p<0.01 versus the control.

[4] = test system: CD36; experiment: Scavenger receptor expression by flow cytometry, CD36; format: cell-based, murine
Procedure: Cell surface CD36 and SR-A were measured by flow cytometry using CD36 (BD Biosciences Pharmingen, San Diego, Calif.) and CD204 (Serotec, Oxford, UK) specific monoclonal antibodies. See Liao et al. (2000) Arterioscler. Thromb. Vasc. Biol. 20: 1968-75; Hu et al. (1996) Blood 87: 2020-28. Murine macrophage J774A.1 cells were serum-starved overnight in media with 0.5% BSA. Cells (1×10^6) treated with cholesterol ozonation products or cholesterol ozonation product complexed with LDL for specified times were then washed twice with PBS. After harvesting the cells by scraping, they were fixed with 6% paraformaldehyde for 20 min; Cells were then resuspended in PBS containing 2% heat-inactivated FCS, 0.05% NaN3 and appropriate primary antibody, antibody conjugate or isotype control (1:100 dilution) and incubated on ice for 30 min. Expression of either CD36 or SR-A was determined with CD36 (BD Biosciences Pharmingen, San Diego, Calif.) and CD204 (Serotec, Oxford, U.K.) specific monoclonal antibodies, respectively. After washing off the primary antibody, secondary antibodies were added, cells were washed again, then analyzed on a FACS calibur 2 (Becton Dickinson, Sparks, Md.) flow cytometer and analyzed by CellQuant software. Results were expressed as mean fluorescence intensity±standard error of the mean (SEM) of at least duplicate determinations. Significance was determined using a student two-tail t test, with (*) indicating p<0.05, and (**) indicating p<0.01 versus the control.

[5] = test system: murine macrophage J774A.1; experiment: Modified Boyden chamber migration (chemotaxis) assay; format: cell-based
Procedure: Chemotaxis and invasion assays were performed using a modified Boyden chamber migration assay. Zwirner et al. (1998) Eur. J. Immunol. 28: 1570-77; Wilkinson (1988) Methods Enzymol. 162: 38-50. Assays were set up on MultiScreen-MIC plates (Millipore, Billerica, Mass., USA) with polyvinylpyrrolidone-free polycarbonate membranes (5 μm pore size). Cells (murine macrophage J774A.1) were washed and resuspended in serum-free DMEM containing 0.2% BSA at 1×10^6 cells/ml. Fifty microliters of cells were added to the upper wells and 150 μl of chemoattractant in DMEM/0.2% BSA were added to the lower wells of the microchamber. Incubation time was for 4 h at 37° C. in an 8% CO2 atmosphere. After swiping cells off the upper side of the membrane, cells on the lower side were visualized by either staining and phase contrast microscopy, or fluorescence. Cells that had adhered to the membrane were stained using a DiffQuik staining kit (Dade Behring, Newark, Del.). Each experiment was performed in triplicate and the numbers of migrating cells were counted in five fields at ×200. Cells harvested with PBS-EDTA for fluorescent labeling were washed two times with PBS, then resuspended in serum-free medium containing calcein AM (5 μM). Cells were incubated for 30 min (37° C., 5% CO2) with gentle intermittent mixing. Calcein-labeled cells were washed twice, and calcein fluorescence ([…]) was measured using a SPECTRAmax™ GEMINI dual-scanning microplate spectrofluorometer. Fluorescence measurements were compared to a standard curve, generated by dilution of cells in PBS/BSA in 100 μl, dispensed into 96-well plates. Fluorescence was quantified as described above.

[6] = test system: E-selectin (CD62E); experiment: Endothelial adhesion molecule expression by ELISA, E-selectin; format: cell-based, human; conditions: HAAE-1, not complexed with LDL
Procedure: (§1) Endothelial cell surface adhesion molecule expression was measured by ELISA, using anti-human CD54 (ICAM-1), CD106 (VCAM-1) and CD62E (E-Selectin) antibodies (Leinco Technologies, Inc., St. Louis, Mo.). The ELISA method was modified from previously described procedures.
(§2) Cells were then incubated with antibodies to VCAM-1, E-selectin, or ICAM-1 diluted 1:400 in PBS containing 5% FCS at 37° C. for 30 min. Wells were washed two times with PBS, then incubated with horseradish peroxidase (HRP)-conjugated goat anti-mouse IgG (Southern Biotechnology Associates, Birmingham, Ala., USA) in PBS/5% FCS at 37° C. for 30 min. The wells were washed four times with PBS, then incubated with H2O2/3,3′,5,5′-tetramethyl-benzidine peroxidase substrate (Pierce Chemical, Rockford, Ill., USA) for 30 min in the dark. The reaction was stopped by adding 25 μl of 8 N H2SO4, and the plates read on a microplate reader, blanking on wells stained with only secondary antibody. Each assay was performed in triplicate and the data are reported as the mean±SEM as a percentage of the expression level of the vehicle. To study the effect of cholesterol ozonation product 5a concentration (5-50 μM) on E-selectin expression, the assay was performed in an identical fashion as described above, with each point being the mean±SEM of at least duplicate measurements.

[7] = test system: VCAM-1 (CD106); experiment: Endothelial adhesion molecule expression by ELISA, VCAM-1; format: cell-based, human; conditions: HAAE-1, not complexed with LDL
Procedure: as §1, §2

[8] = test system: ICAM-1 (CD54); experiment: Endothelial adhesion molecule expression by ELISA, ICAM-1; format: cell-based, human; conditions: HAAE-1, not complexed with LDL
Procedure: as §1, §2

[9] = test system: U-937 monocytes cells; experiment: Monocyte adhesion to endothelial cell monolayers by fluorescence spectroscopy; format: cell-based; conditions: alone or in complex with LDL
[10] = test system: THP-1 monocytes; experiment: Monocyte morphology changes (differentiation into macrophages); format: cell-based, human; conditions: 12.5 or 25 μM, up to 7 days
Procedure: THP-1 monocytes in suspension were plated in 8-well chambered slides. […] Media containing appropriate treatment compounds was replaced after 4 days. After 4 days treatment, morphologic changes of the adherent cells were assessed by phase-contrast microscopy and photographed using an Olympus Microfire digital camera.

[11] = Decrease of extractable 5a in stored plasma; format: in vitro ADME; conditions: stored human plasma, preliminary investigations
Procedure: Plasma samples were obtained from patients (n=8) who were scheduled to undergo carotid endarterectomy within 24 h. […] Control plasma samples were obtained from random patients (n=15) attending a general medical clinic and were analyzed 7 days after collection. In a typical procedure, plasma in EDTA (1 ml) was washed with dichloromethane (DCM, 3×1 mL). The combined organic fractions were evaporated in vacuo. The residue was dissolved in methanol (0.9 mL) and a solution of 2,4-dinitrophenyl hydrazine (100 μL, 0.01 M, Lancaster) and 1N HCl in ethanol was added. Nitrogen was bubbled through the solution for 5 min and then the solution was stirred for 2 h. The resultant solution was filtered through a 0.22 μm filter and the filtrate was analyzed by the HPLC assay vide supra.

[12] = molecular target: LDL / apoB-100 (Homo sapiens, UniProt P04114); experiment: Circular dichroism of LDL secondary structure; conditions: LDL 100 μg/ml with 10 μM compound, PBS pH 7.4, 37° C., up to 48 h; normal LDL ~40±2%
Procedure: Spectra were recorded in the peptidic range (200-260 nm). To increase the signal-to-noise ratio, multiple spectra (three) were averaged for each measurement. The deconvolution of the molar elipticity spectra for each measurement was performed using the CDPro suite of software (by Narasimha Sreerama from Colorado State University) on a Dell PC.

[13] = test system: leukocyte cell lines; experiment: Cytotoxicity to leukocyte cell lines (similar procedures); format: cell-based
Procedure: Cytotoxicity assays. WI-L2 human B-lymphocyte line, HAAE-1 human abdominal aortic endothelial line, MH-S murine alveolar macrophage line, and J774A.1 murine tissue macrophage line were obtained from the ATCC. Human aortic endothelial cells (HAEC) and human vascular smooth muscle cells (VSMS) were obtained from Cambrex Bio Science. Jurkat E6-1T-lymphocytes were kindly provided by Dr. J. Kaye (The Scripps Research Institute). Cells were cultured in ATCC-recommended media with 10% fetal calf serum. Cells were incubated in a controlled atmosphere at 37° C., with 5 or 7% CO2. For lactate dehydrogenase (LDH) release assays, adherent cells were harvested either by addition of 0.05% trypsin/EDTA or by scraping. The cells obtained were seeded onto 96-well microtiter plates (25,000 cells/well) and allowed to recover for 24-48 h. Cells were washed gently and media replaced with fresh media containing 5% fetal calf serum. […] Cytotoxicity was then determined by measuring lactate dehydrogenase (LDH) release from cells in culture. […] 100% Cytotoxicity was defined as the maximum amount of LDH released by dead cells as shown by trypan blue exclusion, or the highest amount of LDH detected upon lysis of cells by 0.9% Triton X-100. The IC50 values were determined by comparison of the raw duplicate data for concentration versus cytotoxicity (%) to non-linear regression analysis (Hill plot) using Graphpad v3.0 software for Macintosh.

Chain of LDL / apoB-100 (P04114 28-4563): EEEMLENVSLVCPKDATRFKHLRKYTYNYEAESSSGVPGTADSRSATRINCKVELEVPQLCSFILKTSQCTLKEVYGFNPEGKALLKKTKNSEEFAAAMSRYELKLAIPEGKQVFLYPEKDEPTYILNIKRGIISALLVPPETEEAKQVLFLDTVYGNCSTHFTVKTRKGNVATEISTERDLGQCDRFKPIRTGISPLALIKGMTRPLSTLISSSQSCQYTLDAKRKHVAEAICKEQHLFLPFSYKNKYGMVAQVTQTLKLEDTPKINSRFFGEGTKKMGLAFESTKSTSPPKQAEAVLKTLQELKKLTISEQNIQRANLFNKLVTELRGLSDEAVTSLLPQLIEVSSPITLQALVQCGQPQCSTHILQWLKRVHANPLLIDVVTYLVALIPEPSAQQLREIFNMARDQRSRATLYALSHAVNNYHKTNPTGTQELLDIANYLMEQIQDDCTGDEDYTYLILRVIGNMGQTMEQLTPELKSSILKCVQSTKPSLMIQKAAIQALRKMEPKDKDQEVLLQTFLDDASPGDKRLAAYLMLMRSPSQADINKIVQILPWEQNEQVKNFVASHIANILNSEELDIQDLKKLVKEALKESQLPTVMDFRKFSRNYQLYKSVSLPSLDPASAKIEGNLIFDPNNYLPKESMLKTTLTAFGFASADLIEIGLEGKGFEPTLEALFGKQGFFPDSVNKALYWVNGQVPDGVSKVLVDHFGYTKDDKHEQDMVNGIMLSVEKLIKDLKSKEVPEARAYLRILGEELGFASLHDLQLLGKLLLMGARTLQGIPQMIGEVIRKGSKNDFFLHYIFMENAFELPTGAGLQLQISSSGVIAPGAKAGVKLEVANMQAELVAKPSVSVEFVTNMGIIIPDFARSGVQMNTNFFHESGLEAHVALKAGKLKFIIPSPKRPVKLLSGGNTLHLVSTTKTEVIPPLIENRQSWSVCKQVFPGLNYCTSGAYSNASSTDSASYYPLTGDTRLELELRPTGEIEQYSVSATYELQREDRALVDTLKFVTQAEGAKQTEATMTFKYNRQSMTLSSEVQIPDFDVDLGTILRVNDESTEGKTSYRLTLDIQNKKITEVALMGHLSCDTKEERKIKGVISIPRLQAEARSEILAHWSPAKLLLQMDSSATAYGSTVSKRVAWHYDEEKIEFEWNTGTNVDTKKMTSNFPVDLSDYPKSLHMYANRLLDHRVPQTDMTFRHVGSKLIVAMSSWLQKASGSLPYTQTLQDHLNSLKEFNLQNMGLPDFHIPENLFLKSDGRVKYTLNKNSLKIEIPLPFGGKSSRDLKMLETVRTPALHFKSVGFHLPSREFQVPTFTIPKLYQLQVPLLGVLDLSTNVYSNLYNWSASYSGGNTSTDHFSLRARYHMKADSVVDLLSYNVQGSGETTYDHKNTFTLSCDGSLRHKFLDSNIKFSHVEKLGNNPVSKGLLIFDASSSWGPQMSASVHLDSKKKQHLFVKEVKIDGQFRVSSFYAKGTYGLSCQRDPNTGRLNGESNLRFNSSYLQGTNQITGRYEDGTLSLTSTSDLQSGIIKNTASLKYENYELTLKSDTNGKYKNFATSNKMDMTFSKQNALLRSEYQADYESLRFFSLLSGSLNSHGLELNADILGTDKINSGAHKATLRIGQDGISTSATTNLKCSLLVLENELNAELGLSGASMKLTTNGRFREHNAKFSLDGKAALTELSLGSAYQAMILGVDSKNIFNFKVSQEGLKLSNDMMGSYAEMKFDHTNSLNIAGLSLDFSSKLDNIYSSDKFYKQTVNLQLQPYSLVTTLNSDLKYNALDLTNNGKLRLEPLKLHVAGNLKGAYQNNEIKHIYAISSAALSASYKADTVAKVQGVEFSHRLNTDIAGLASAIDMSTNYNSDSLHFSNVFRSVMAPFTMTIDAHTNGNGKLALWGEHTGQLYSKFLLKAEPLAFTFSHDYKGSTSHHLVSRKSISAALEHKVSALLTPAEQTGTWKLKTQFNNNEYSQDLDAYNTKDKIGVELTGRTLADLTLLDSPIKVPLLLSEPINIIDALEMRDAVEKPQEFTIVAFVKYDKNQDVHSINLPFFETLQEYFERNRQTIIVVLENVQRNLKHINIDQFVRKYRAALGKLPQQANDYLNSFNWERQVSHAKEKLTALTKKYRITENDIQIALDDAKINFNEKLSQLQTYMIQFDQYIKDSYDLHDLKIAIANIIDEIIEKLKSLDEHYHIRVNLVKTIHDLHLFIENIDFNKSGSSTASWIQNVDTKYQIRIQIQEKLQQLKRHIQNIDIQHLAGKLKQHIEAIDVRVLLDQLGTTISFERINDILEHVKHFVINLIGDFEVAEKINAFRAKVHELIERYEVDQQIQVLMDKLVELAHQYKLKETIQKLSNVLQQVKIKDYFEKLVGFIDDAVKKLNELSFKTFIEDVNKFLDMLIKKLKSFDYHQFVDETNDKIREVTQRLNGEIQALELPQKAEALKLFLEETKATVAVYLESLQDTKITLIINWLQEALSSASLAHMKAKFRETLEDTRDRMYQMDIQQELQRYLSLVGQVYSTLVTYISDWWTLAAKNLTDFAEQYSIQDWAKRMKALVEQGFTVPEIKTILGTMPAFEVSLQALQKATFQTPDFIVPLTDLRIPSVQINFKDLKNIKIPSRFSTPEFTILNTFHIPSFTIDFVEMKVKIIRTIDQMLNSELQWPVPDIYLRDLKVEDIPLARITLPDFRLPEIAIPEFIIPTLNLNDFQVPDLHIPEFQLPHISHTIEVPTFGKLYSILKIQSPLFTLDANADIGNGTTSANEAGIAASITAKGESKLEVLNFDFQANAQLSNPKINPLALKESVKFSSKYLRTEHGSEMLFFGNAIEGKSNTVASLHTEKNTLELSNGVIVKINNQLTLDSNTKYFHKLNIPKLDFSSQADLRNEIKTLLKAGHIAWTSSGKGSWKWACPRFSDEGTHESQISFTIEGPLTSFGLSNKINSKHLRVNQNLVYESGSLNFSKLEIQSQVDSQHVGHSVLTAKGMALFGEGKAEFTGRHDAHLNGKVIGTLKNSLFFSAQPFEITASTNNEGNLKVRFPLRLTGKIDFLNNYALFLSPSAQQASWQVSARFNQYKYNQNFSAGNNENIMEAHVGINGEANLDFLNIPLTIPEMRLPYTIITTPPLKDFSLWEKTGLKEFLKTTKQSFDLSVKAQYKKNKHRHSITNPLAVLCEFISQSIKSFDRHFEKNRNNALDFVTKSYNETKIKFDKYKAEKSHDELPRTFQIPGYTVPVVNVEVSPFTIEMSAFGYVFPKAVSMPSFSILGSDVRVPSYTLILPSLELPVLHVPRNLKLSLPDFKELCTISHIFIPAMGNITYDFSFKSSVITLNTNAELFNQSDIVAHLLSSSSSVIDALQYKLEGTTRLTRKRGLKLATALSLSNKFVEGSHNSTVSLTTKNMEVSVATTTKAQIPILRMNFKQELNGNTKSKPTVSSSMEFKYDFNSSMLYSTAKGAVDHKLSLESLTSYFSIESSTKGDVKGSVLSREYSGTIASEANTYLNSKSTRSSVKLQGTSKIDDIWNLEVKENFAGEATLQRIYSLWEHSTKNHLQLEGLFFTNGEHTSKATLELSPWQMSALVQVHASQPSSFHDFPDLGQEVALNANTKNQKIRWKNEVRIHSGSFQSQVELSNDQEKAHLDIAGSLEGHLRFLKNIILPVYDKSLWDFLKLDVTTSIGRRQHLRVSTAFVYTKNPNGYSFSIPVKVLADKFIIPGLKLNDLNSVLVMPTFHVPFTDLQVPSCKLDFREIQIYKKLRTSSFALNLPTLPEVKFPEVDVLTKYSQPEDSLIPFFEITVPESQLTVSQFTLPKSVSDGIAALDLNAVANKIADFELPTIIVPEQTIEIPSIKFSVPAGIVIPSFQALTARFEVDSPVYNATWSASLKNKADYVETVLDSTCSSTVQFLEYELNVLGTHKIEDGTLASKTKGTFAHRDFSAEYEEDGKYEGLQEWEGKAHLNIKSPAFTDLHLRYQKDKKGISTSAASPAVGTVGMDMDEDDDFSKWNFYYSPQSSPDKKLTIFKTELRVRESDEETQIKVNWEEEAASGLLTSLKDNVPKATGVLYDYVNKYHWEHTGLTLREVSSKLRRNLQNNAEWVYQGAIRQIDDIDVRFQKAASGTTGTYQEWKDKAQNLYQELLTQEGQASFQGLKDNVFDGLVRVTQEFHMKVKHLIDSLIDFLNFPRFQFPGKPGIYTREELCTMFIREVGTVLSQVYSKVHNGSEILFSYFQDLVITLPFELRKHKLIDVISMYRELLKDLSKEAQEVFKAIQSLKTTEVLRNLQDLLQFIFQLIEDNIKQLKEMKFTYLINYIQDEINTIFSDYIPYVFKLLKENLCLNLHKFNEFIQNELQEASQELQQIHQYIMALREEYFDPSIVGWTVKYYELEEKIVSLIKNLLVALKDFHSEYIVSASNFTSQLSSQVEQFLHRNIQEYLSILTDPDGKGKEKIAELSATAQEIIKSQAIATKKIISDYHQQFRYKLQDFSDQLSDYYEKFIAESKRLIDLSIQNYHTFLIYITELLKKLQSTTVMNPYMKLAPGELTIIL

CC(C)CCC[C@@H](C)[C@H]1CCC2C3C(CC[C@@]21C)[C@@]1(C)CC[C@H](O)C[C@@]1(O)[C@@H]3C=O (stereo partly drawn) [5a, 3β-Hydroxy-5β-hydroxy-B-norcholestane-6βcarboxaldehyde]
cytotoxicity towards neuronal cell lines [1]: cytotoxic | lipid-loading of macrophages / foam cell formation [2]: began lipid-loading and foam cells began to appear | SR-A expression [3]: did not increase expression of either receptor | CD36 expression ([4]; J774A.1, 25 μM compound complexed with LDL (100 μg/ml protein), 6 h): little or no effect | CD36 expression ([4]; cultured macrophages, compound in the absence of LDL): did not increase expression of either receptor | recruitment (migration) of macrophages ([5]; 0-25 μM, 4 h, P<0.001): dose-dependent recruitment of macrophages | migration of macrophages ([5]; compound co-incubated with BSA): macrophage migration still occurs | migration of macrophages ([5]; compound complexed with native LDL (100 μg/ml)): no significant migration | selectin (E-selectin) expression [6]: no effects | integrin expression (VCAM-1) [7]: no effects | integrin expression (ICAM-1) [8]: no effects | adhesion of U-937 monocytes to endothelial cell monolayers, above that of LDL alone [9]: neither ozonolysis product 4a nor 5a, alone or in complex with LDL, nor CuOx-LDL significantly increased adhesion | THP-1 monocyte differentiation into macrophages (adherence, morphology) [10]: displayed hypertrophy, developed cytoplasmic vacuoles, and formed extended processes, all characteristic of mature macrophages | decrease of the amount of 5a that can be extracted from plasma [11]: about 5 % per day | a helical structure of LDL [12]: ~20±2%

CC(C)CCC[C@@H](C)[C@H]1CCC2C(CC=O)C([C@@]3(C)CCC=CC3=O)CC[C@@]21C (stereo partly shown) [6a, 5-Oxo-5,6-secocholest-3-en-6-al]
cytotoxicity to leukocyte cell lines [13]: cytotoxic

CC(C)CCC[C@@H](C)[C@H]1CC[C@H]2[C@@H]3C(=O)C=C4C[C@@H](O)CC[C@]4(C)[C@H]3CC[C@]12C [7-KC, 7-ketocholesterol, reference compound]
THP-1 monocyte differentiation into macrophages (adherence, morphology) [10]: began to adhere after 4 days

CC(C)CCC[C@@H](C)[C@H]1CCC2C3C(CC[C@@]21C)[C@@]1(C)CCC=C[C@@]1(O)[C@@H]3C=O (stereo partly drawn) [7a, 5β-Hydroxy-B-norcholest-3-ene-6β-carboxaldehyde]
cytotoxicity to leukocyte cell lines [13]: cytotoxic

CC(C)CCC[C@@H](C)[C@H]1CCC2C3C(CC[C@@]21C)[C@@]1(C)CCC=C[C@@]1(O)[C@@H]3CO (stereo partly shown) [7c]
cytotoxicity to leukocyte cell lines [13]: cytotoxic

CC(C)CCC[C@@H](C)[C@H]1CCC2[C@H](CC(=O)O)C([C@@]3(C)CC[C@H](O)CC3=O)CC[C@@]21C (stereo partly shown) [10a]
cytotoxicity to leukocyte cell lines [13]: cytotoxic

CC(C)CCC[C@@H](C)[C@H]1CCC2[C@H](CC=O)C([C@@]3(C)CCCCC(=O)O3)CC[C@@]21C (stereo partly shown) [11a]
cytotoxicity to leukocyte cell lines [13]: cytotoxic

CC(C)CCC[C@@H](C)[C@H]1CCC2C3C(C=O)=C4C=CCC[C@]4(C)C3CC[C@@]21C (stereo partly shown) [12a, B-norcholest-3,5-diene-6-carboxaldehyde]
cytotoxicity to leukocyte cell lines [13]: cytotoxic
